Reference: patent publication US20240368133A1, “Compounds for the Treatment of Pain, in Particular, Neuropathic Pain, and/or Other Diseases or Disorders that are Associated with AT2R and/or AT2R Mediated Signaling” (Confo Therapeutics N.V., priority 2021, published 2024)

Columns and labels:
[1] = Caco-2 permeability assay; format: in vitro ADME; conditions: human
Description: Caco-2 cells were cultured in 75 cm^2 flasks to 80-90% confluence according to the ATCC and Millipore recommendations (Arena A. et al., 2003) in humidified atmosphere at 37° C. and 5% CO2. Cells were detached with Trypsin/EDTA solution and resuspended in the cell culture medium to a final concentration of 2×10^5 cells/ml. 500 μl of the cell suspension was added to each well of HTS 24-Multiwell Insert System and 1000 μl of prewarmed complete medium was added to each well of the feeder-plate. Caco-2 cells were incubated in Multiwell Insert System for 21 days before the transport experiments. The medium in filter plate and feeder tray was refreshed every other day. After 21 days of the cell growth, the integrity of the monolayer was verified by measuring the transepithelial electrical resistance (TEER) for every well using the Millicell-ERS system ohm meter. The final TEER values were within the range 150-600 Ω×cm^2 (Srinivasan B. et al., 2015) as required for the assay conditions. 24-well insert plate was removed from its feeder plate and placed in a new sterile 24-well transport analysis plate. The inserts were washed with PBS after medium aspiration. To determine the rate of compounds transport in apical (A)-to-basolateral (B) direction, 300 μL of the test compound dissolved in transport buffer at 10 μM (HBSS, 25 mM HEPES, pH=7.4) was added into the filter wells; 1000 μL of buffer (HBSS, 25 mM HEPES, pH=7.4) was added to transport analysis plate wells. Propranolol, Atenolol, Quinidine and Digoxin were used as reference compounds. The plates were incubated for 90 min at 37° C. under continuous shaking at 50 rpm. 75 μL aliquots were taken from the donor and receiver compartments for LC-MS/MS analysis. All samples were mixed with 2 volumes of acetonitrile followed by protein sedimentation by centrifuging at 10000 rpm for 10 minutes. Supernatants were analyzed using the HPLC system coupled with tandem mass spectrometer. The apparent permeability (Papp) was calculated for Caco-2 permeability assay using the following equation:
• VA=volume of transport buffer in acceptor well • Area=surface area of the insert (equals to effective growth area of the insert −0.31 sq.cm) • Time=time of the assay • [drug]acc=concentration of test compound in acceptor well • [drug]initial,d=initial concentration of test compound in a donor well • Papp is expressed in 10^−6 cm/sec.
The % recovery can be useful in interpreting the Caco-2 data. If the recovery is very low, this may indicate poor solubility, binding of the compound to the test plate materials, metabolism by the Caco-2 cells, or accumulation of the compound in the cell monolayer. The % recovery was calculated using the following equation:
• Vacc=volume of compound solution in acceptor well […] • Vd=volume of compound solution in […] • Cacc=concentration of test compound in acceptor well (μM) • Cinitial,d=initial concentration of test compound in a donor well (μM)

[2] = Caco-2 permeability assay; format: in vitro ADME; conditions: human, pH 7.4; Caco-2, BA
human AT1R = human AT1R (Homo sapiens (Human), UniProt P30556); assay: Counterscreen radioligand binding assay, displacement of 125I-[Sar1, Ile8]-Angiotensin II, hAT1R WT; conditions: 125I-[Sar1, Ile8]-Ang II, semi-quantitative score
Chain of human AT1R (P30556 whole entry): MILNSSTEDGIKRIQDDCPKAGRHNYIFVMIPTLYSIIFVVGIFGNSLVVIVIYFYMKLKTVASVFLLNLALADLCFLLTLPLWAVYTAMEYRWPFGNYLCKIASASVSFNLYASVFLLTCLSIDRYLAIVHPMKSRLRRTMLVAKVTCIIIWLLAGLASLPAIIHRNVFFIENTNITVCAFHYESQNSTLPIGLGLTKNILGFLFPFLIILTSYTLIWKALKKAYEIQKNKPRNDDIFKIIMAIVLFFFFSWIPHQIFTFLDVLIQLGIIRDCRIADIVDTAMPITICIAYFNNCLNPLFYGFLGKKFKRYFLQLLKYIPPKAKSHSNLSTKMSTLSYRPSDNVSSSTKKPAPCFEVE
How it was run: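 Membranes from HEK-293 cells expressing human AT1R were incubated for one hour at 25° C, pH 7.4, with 0.05 nM radiolabelled [Sar1, Ile8]-Ang II and test ligand. Bound radioactivity was collected on PEI-soaked filters, with 10 μM unlabelled [Sar1]-Ang II defining non-specific binding. Results are percent displacement at 1 μM and […], or IC50 from eight-point duplicate curves.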

human AT2R fused to Cb23 = human AT2R fused to Cb23 (Homo sapiens, UniProt P50052); assay: Radioligand binding assay, displacement of 125I-[Sar1, Ile8]-Angiotensin II, hAT2R Cb23; conditions: displacement of 125I-[Sar1, Ile8]-Angiotensin II, human AT2R fused to Cb23, HEK-293 cell membrane preparations; read-out: Binding affinity on hAT2R_Cb23 IC50
Chain of human AT2R fused to Cb23 (P50052 whole entry, looked up, the tested form may be a part): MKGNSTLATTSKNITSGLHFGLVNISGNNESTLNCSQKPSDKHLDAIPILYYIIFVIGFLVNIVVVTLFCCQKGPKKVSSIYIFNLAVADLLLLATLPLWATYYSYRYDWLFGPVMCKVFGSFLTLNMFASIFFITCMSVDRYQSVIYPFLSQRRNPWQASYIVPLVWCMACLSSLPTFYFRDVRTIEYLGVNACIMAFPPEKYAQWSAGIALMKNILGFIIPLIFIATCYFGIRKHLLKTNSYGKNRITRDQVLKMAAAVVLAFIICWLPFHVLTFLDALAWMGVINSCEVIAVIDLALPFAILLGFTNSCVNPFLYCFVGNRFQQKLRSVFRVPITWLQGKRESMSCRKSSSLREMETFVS
How it was run: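 Membranes from HEK-293 cells expressing human AT2R fused to Cb23 were incubated with 0.05 nM 125I-[Sar1, Ile8]-Angiotensin II in 100 μL buffer (50 mM Tris, 5 mM MgCl2, 1 mM EDTA, 0.1% BSA, pH 7.4) for one hour at 25° C. Ligands were tested as eight-point dose-response curves in duplicate, with C21 and Angiotensin II as references.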

- efflux ratio at 90 min, 10 µM ([1]; Caco-2, pH 7.4): 11.3
- recovery at 90 min, 10 µM ([1]; Caco-2, pH 7.4): 97%
- Papp A→B at 90 min, 10 µM ([1]; pH 7.4, Caco-2, AB): 1.3 ×10⁻⁶ cm/s
- Papp B→A at 90 min, 10 µM [2]: 14.7 ×10⁻⁶ cm/s
- inhibition at 1 µM (human AT1R; compound at 1 μM, read-out: % Displaced radioligand at 1 μM): < 30%
- inhibition at 10 µM (human AT1R; compound at 10 μM, read-out: % Displaced radioligand at 10 μM): < 30%
- IC50 (human AT2R fused to Cb23): 0.0177 µM
SMILES: CCc1cc(CC(C)C)cc(N2CCN(Cc3cccnn3)CC2)c1-c1nn[nH]n1 [Compound A-168]
